From US20070059364A1, “Active substance combination comprising a compound with npy receptor affinity and a compound with 5-ht6 receptor affinity” (Laboratorios Del Dr. Esteve S.A., priority 2003, published 2007) come the findings set out here.

What is called melting point is the temperature of the solid-liquid transition. As for `CCN(CC)CCc1c[nH]c2ccc(NS(=O)(=O)c3sc4ccc(Cl)cc4c3C)cc12` [24e], the melting point fell in the range of 53 to 56 °C.

Consider `CCN(CC)CCc1c[nH]c2ccc(NS(=O)(=O)c3sc4ccc(Cl)cc4c3C)cc12` [Example 1c, N-[3-(2-diethylaminoethyl)-1H-indol-5-yl]-5-chloro-3-methylbenzo[b]thiophene-2-sulphonamide], for which the melting point lay in the range of 170 to 173 °C.

Consider `Cc1c(S(=O)(=O)Nc2cccc3c2ccn3CCN(C)C)sc2ccc(Cl)cc12` [Example 1d, N-[1-(2-dimethylaminoethyl)-1H-indole-4-yl]-5-chloro-3-methyl-benzo[b]thiophene-2-sulfonamide], for which the melting point is 78 to 80 °C.

Take `Cc1c(S(=O)(=O)Nc2ccc3c(ccn3CCN(C)C)c2)sc2ccc(Cl)cc12` [Example 1e, N-[1-(2-dimethylaminoethyl)-1H-indole-5-yl]-5-chloro-3-methylbenzo[b]thiophene-2-sulfonamide]: the melting point was 71 to 73 °C.

Compound `CN1CC=C(c2cn(S(=O)(=O)C3CCCCC3)c3ccc([N+](=O)[O-])cc23)CC1` [Example 1h, 1-Cyclohexanesulfonyl-3-(1-methyl-1,2,3,6-tetrahydropyridine-4-yl)-5-nitro-1H-indole] had a melting point of 155 to 160 °C.

On to `CN(C)CCn1ccc2ccc(NS(=O)(=O)c3ccc4ccccc4c3)cc21` [Example 2f, N-[1-(2-Dimethylaminoethyl)-1H-indol-6-yl]-naphthalene-2-sulfonamide], for which the melting point was 140 to 143 °C.

`Cc1c(S(=O)(=O)Nc2cccc3ccn(CCN(C)C)c23)sc2ccc(Cl)cc12` [Example 2g, N-[1-(2-dimethylaminoethyl)-1H-indole-7-yl]-5-chloro-3-methylbenzo[b]thiophene-2-sulfonamide]: the melting point lay in the range of 57 to 65 °C.

Regarding `CN1CC=C(c2cn(S(=O)(=O)C3CCCCC3)c3ccc(Cl)cc23)CC1` [Example 2h, 5-Chloro-1-cyclohexanesulfonyl-3-(1-methyl-1,2,3,6-tetrahydropyridine-4-yl)-1H-indole], the melting point fell in the range of 88 to 90 °C.

`CCN(CC)CCc1c[nH]c2ccc(NS(=O)(=O)c3cccc4ccccc34)cc12.Cl` [Example 3c, Hydrochloride N-[3-(2-diethylaminoethyl)-1H-indol-5-yl]naphthalene-1-sulphonamide] had a melting point of 255 to 257 °C.

`CN(C)CCn1ccc2cc(NS(=O)(=O)c3cccc4ccccc34)ccc21` [Example 3e, N-[1-(2-dimethylaminoethyl)-1H-indole-5-yl]-naphthalene-1-sulfonamide] displayed a melting point of 179 to 181 °C.

As for `CN(C)CCn1ccc2ccc(NS(=O)(=O)c3cccc4ccccc34)cc21` [Example 3f, N-[1-(2-Dimethylaminoethyl)-1H-indol-6-yl]-naphthalene-1-sulfonamide], the melting point was 139 to 142 °C.

Take `CN(C)CCn1ccc2cccc(NS(=O)(=O)c3ccc(-c4ccccc4)cc3)c21` [Example 3g, N-[1-(2-dimethylaminoethyl)-1H-indole-7-yl]-4-phenylbenzenesulfonamide]: the melting point fell in the range of 137 to 140 °C.

On to `CN1CC=C(c2cn(S(=O)(=O)C3CCCCC3)c3ccc(N)cc23)CC1` [Example 3h, 5-Amino-1-cyclohexanesulfonyl-3-(1-methyl-1,2,3,6-tetrahydropyridine-4-yl)-1H-indole], for which the melting point is 75 °C (dec.).

`CCN(CC)CCc1c[nH]c2ccc(NS(=O)(=O)c3cc(Cl)cc(Cl)c3)cc12` [Example 4c, N-[3-(2-diethylaminoethyl)-1H-indol-5-yl]-3,5-dichlorobenzenesulphonamide] registered a melting point of 168 to 170 °C.

For the compound `CN(C)CCn1ccc2c(NS(=O)(=O)c3ccc(-c4ccccc4)cc3)cccc21` [Example 4d, N-[1-(2-dimethylaminoethyl)-1H-indole-4-yl]-4 phenylbenzenesulfonamide], the melting point is 137 to 140 °C.

For the compound `CN(C)CCn1ccc2cc(NS(=O)(=O)c3cccc4c(Cl)cccc34)ccc21` [Example 4e, N-[1-(2-dimethylaminoethyl)-1H-indole-5-yl]-5-chloronaphthalene-1-sulfonamide], the melting point lay within 172 to 174 °C.

Consider `CN(C)CCn1ccc2cccc(NS(=O)(=O)c3c(Cl)nc4sccn34)c21` [Example 4g, N-[1-(2-dimethylaminoethyl)-1H-indole-7-yl]-6-chloroimidazo[2,1-b]thiazole-5-sulfonamide], for which the melting point lay within 73 to 76 °C.

As to `Cl.O=S(=O)(C1CCCCC1)n1cc(C2=CCN3CCCC3C2)c2cc(F)ccc21` (stereo not shown) [Example 4h, 1-Cyclohexanesulfonyl-5-fluoro-3-(1,2,3,5,8,8a-hexahydro-indolizine-7-yl)-1H-indole hydrochloride], the melting point was 263 °C (dec.).

Consider `CCN(CC)CCc1c[nH]c2ccc(NS(=O)(=O)c3ccc(-c4ccccc4)cc3)cc12` [Example 5c, N-[3-(2-diethylaminoethyl)-1H-indol-5-yl]-4-phenylbenzenesulphonamide], for which the melting point lay in the range of 161 to 163 °C.

For `Cc1c(S(=O)(=O)Nc2cccc3ccn(CCN4CCCC4)c23)sc2ccc(Cl)cc12` [Example 5g, 5-chloro-3-methyl-N-(1-(2-(pyrrolidin-1-yl)ethyl)-1H-indol-7-yl)-benzo[b]thiophen-2-sulfonamide], the melting point was 82 to 85 °C.

Compound `CCN(CC)CCc1c[nH]c2ccc(NS(=O)(=O)c3ccc(Cl)s3)cc12` [Example 6c, N-[3-(2-diethylaminoethyl)-1H-indol-5-yl]-5-chlorothiophene-2-sulphonamide] had a melting point of 180 to 181 °C.

In turn, `CN(C)CCn1ccc2cc(NS(=O)(=O)c3cccc4cccnc34)ccc21` [Example 6e, N-[1-(2-dimethylaminoethyl)-1H-indole-5-yl]-quinoline-8-sulfonamide] had a melting point of 161 to 164 °C.

In turn, `O=S(=O)(Nc1cccc2ccn(CCN3CCCC3)c12)c1cccc2ccccc12` [Example 6g, N-(1-(2-(pyrrolidin-1-yl)ethyl)-1H-indol-7-yl)naphthalene-1-sulfonamide] displayed a melting point of 196 to 199 °C.

In turn, `Cc1c(S(=O)(=O)Nc2ccc3[nH]cc(CCN(C)C)c3c2)sc2ccc(Cl)cc12` [Example 7c, N-[3-(2-dimethylaminoethyl)-1H-indol-5-yl]-5-chloro-3-methylbenzo[b]thiophene-2-sulphonamide] returned a melting point of 226 to 227 °C.

With `CN(C)CCn1ccc2c(NS(=O)(=O)c3cc(Cl)cc(Cl)c3)cccc21` [Example 7d, N-[1-(2-dimethylaminoethyl)-1H-indole-4-yl]-3,5-dichlorobenzenesulfonamide], the melting point was in the range of 113 to 118 °C.

In turn, `CN(C)CCn1ccc2cc(NS(=O)(=O)c3ccc(Oc4ccccc4)cc3)ccc21` [Example 7e, N-[1-(2-dimethylaminoethyl)-1H-indole-5-yl]-4-phenoxybenzenesulfonamide] gave a melting point of 138 to 140 °C.

As to `CN(C)CCc1c[nH]c2ccc(NS(=O)(=O)c3cccc4ccccc34)cc12` [Example 8c, N-[3-(2-dimethylaminoethyl)-1H-indol-5-yl]naphthalene-1-sulphonamide], the melting point lay within 203 to 205 °C.

Regarding `CN(C)CCn1ccc2c(NS(=O)(=O)c3c(Cl)nc4sccn34)cccc21` [Example 8d, 6-chloro-N-[1-(2-dimethylaminoethyl)-1H-indol-4-yl]-imidazo[2,1-b]thiazole-5-sulfonamide], the melting point lay within 95 to 100 °C.
